ChEMBL document CHEMBL1138438, “Structural-activity relationship study of highly-functionalized imidazolines as potent inhibitors of nuclear transcription factor-kappaB mediated IL-6 production” (Bioorg Med Chem, 2009)

Key:
[1] = tested on: HeLa; experiment: Effect on cell cycle arrest in TNF-alpha-stimulated human HeLa cells transfected with NFkappaB-Luc assessed as cell aggregate level at 0.05 uM after 8 hrs by using propidium iodide staining by FACS analysis; format: functional
[2] = tested on: HeLa; experiment: Effect on cell cycle arrest in TNF-alpha-stimulated human HeLa cells transfected with NFkappaB-Luc assessed as cell aggregate level at 20 uM after 8 hrs by using propidium iodide staining by FACS analysis; format: functional
[3] = tested on: HeLa; experiment: Cell cycle arrest in TNF-alpha-stimulated human HeLa cells transfected with NFkappaB-Luc assessed as accumulation at diploid S phase at 1 uM after 8 hrs by using propidium iodide staining by FACS analysis; format: functional
[4] = tested on: HeLa; experiment: Cell cycle arrest in TNF-alpha-stimulated human HeLa cells transfected with NFkappaB-Luc assessed as accumulation at diploid G2 phase at 10 uM after 8 hrs by using propidium iodide staining by FACS analysis; format: functional
[5] = tested on: HeLa; experiment: Cell cycle arrest in TNF-alpha-stimulated human HeLa cells transfected with NFkappaB-Luc assessed as accumulation at diploid S phase at 0.1 uM after 8 hrs by using propidium iodide staining by FACS analysis; format: functional
[6] = tested on: HeLa; experiment: Cell cycle arrest in TNF-alpha-stimulated human HeLa cells transfected with NFkappaB-Luc assessed as accumulation at total S phase at 10 uM after 8 hrs by using propidium iodide staining by FACS analysis; format: functional
[7] = tested on: HeLa; experiment: Cell cycle arrest in TNF-alpha-stimulated human HeLa cells transfected with NFkappaB-Luc assessed as accumulation at total S phase at 0.1 uM after 8 hrs by using propidium iodide staining by FACS analysis; format: functional
[8] = tested on: HeLa; experiment: Effect on cell cycle arrest in TNF-alpha-stimulated human HeLa cells transfected with NFkappaB-Luc assessed as cell debris level at 0.5 uM after 8 hrs by using propidium iodide staining by FACS analysis; format: functional
[9] = tested on: HeLa; experiment: Effect on cell cycle arrest in TNF-alpha-stimulated human HeLa cells transfected with NFkappaB-Luc assessed as cell debris level at 20 uM after 8 hrs by using propidium iodide staining by FACS analysis; format: functional
[10] = Cytotoxicity against human whole blood lymphocytes assessed as survival cell count in millions at 1 uM after 24 hrs by trypan blue staining-based hemocytometry
[11] = tested on: HeLa; experiment: Effect on cell cycle arrest in TNF-alpha-stimulated human HeLa cells transfected with NFkappaB-Luc assessed as cell debris level at 0.1 uM after 8 hrs by using propidium iodide staining by FACS analysis; format: functional
[12] = tested on: HeLa; experiment: Cell cycle arrest in human HeLa cells transfected with NFkappaB-Luc assessed as accumulation at diploid G2 phase at 20 uM after 8 hrs by using propidium iodide staining by FACS analysis; format: functional
[13] = tested on: HeLa; experiment: Effect on cell cycle arrest in TNF-alpha-stimulated human HeLa cells transfected with NFkappaB-Luc assessed as cell aggregate level at 10 uM after 8 hrs by using propidium iodide staining by FACS analysis; format: functional
[14] = tested on: HeLa; experiment: Cell cycle arrest in TNF-alpha-stimulated human HeLa cells transfected with NFkappaB-Luc assessed as accumulation at diploid stage at 1 uM after 8 hrs by using propidium iodide staining by FACS analysis; format: functional
[15] = tested on: HeLa; experiment: Effect on cell cycle arrest in TNF-alpha-stimulated human HeLa cells transfected with NFkappaB-Luc assessed as cell aggregate level at 5 uM after 8 hrs by using propidium iodide staining by FACS analysis; format: functional
[16] = tested on: HeLa; experiment: Cell cycle arrest in TNF-alpha-stimulated human HeLa cells transfected with NFkappaB-Luc assessed as accumulation at diploid G1 phase at 1 uM after 8 hrs by using propidium iodide staining by FACS analysis; format: functional
[17] = Cytotoxicity against human whole blood lymphocytes assessed as survival cell count in millions at 3 uM after 24 hrs by trypan blue staining-based hemocytometry
[18] = tested on: HeLa; experiment: Cell cycle arrest in TNF-alpha-stimulated human HeLa cells transfected with NFkappaB-Luc assessed as accumulation at diploid stage at 0.5 uM after 8 hrs by using propidium iodide staining by FACS analysis; format: functional
[19] = tested on: HeLa; experiment: Cell cycle arrest in TNF-alpha-stimulated human HeLa cells transfected with NFkappaB-Luc assessed as accumulation at diploid G1 phase at 10 uM after 8 hrs by using propidium iodide staining by FACS analysis; format: functional
[20] = tested on: HeLa; experiment: Cell cycle arrest in TNF-alpha-stimulated human HeLa cells transfected with NFkappaB-Luc assessed as accumulation at total S phase at 20 uM after 8 hrs by using propidium iodide staining by FACS analysis; format: functional
[21] = tested on: HeLa; experiment: Cell cycle arrest in TNF-alpha-stimulated human HeLa cells transfected with NFkappaB-Luc assessed as accumulation at diploid G2 phase at 0.05 uM after 8 hrs by using propidium iodide staining by FACS analysis; format: functional
[22] = tested on: HeLa; experiment: Effect on cell cycle arrest in TNF-alpha-stimulated human HeLa cells transfected with NFkappaB-Luc assessed as total background cell aggregate and debris level at 20 uM after 8 hrs by using propidium iodide staining by FACS analysis; format: functional
[23] = tested on: HeLa; experiment: Cell cycle arrest in TNF-alpha-stimulated human HeLa cells transfected with NFkappaB-Luc assessed as accumulation at diploid stage at 10 uM after 8 hrs by using propidium iodide staining by FACS analysis; format: functional
[24] = tested on: HeLa; experiment: Cell cycle arrest in TNF-alpha-stimulated human HeLa cells transfected with NFkappaB-Luc assessed as accumulation at diploid G1 phase at 0.1 uM after 8 hrs by using propidium iodide staining by FACS analysis; format: functional
[25] = tested on: HeLa; experiment: Cell cycle arrest in TNF-alpha-stimulated human HeLa cells transfected with NFkappaB-Luc assessed as accumulation at diploid S phase at 10 uM after 8 hrs by using propidium iodide staining by FACS analysis; format: functional
[26] = tested on: HeLa; experiment: Cell cycle arrest in TNF-alpha-stimulated human HeLa cells transfected with NFkappaB-Luc assessed as accumulation at diploid G1 phase at 5 uM after 8 hrs by using propidium iodide staining by FACS analysis; format: functional
[27] = tested on: HeLa; experiment: Cell cycle arrest in TNF-alpha-stimulated human HeLa cells transfected with NFkappaB-Luc assessed as accumulation at diploid S phase at 5 uM after 8 hrs by using propidium iodide staining by FACS analysis; format: functional
[28] = Cytotoxicity against human whole blood lymphocytes assessed as survival cell count in millions at 20 uM after 24 hrs by trypan blue staining-based hemocytometry
[29] = tested on: HeLa; experiment: Effect on cell cycle arrest in TNF-alpha-stimulated human HeLa cells transfected with NFkappaB-Luc assessed as total background cell aggregate and debris level at 1 uM after 8 hrs by using propidium iodide staining by FACS analysis; format: functional
[30] = Inhibition of NF-kappaB-mediated gene transcription expressed in TNF-alpha-stimulated human HeLa cells for 30 mins before TNFalpha challenge measured after 8 hrs by steady-glo luciferase reporter gene assay; format: cell-based
[31] = Inhibition of NF-kappaB-mediated gene transcription expressed in TNF-alpha-stimulated human HeLa cells co-transfected with renilla luciferase-TK gene preincubated for 30 mins before TNFalpha challenge measured after 8 hrs by dual-glo luciferase reporter gene assay; format: cell-based
[32] = Cytotoxicity against IL-1-beta-stimulated human whole blood lymphocytes assessed as survival cell count in millions at 3 uM after 24 hrs by trypan blue staining-based hemocytometry
[33] = Cytotoxicity against human whole blood lymphocytes assessed as survival cell count in millions at 10 uM after 24 hrs by trypan blue staining-based hemocytometry

## CCOC(=O)[C@]1(c2ccccc2)N=C(c2ccccc2)N(Cc2ccccc2)[C@@H]1c1ccccc1 (racemic)
[1]
  Activity: 0%
[2]
  Activity: 0%
[3]
  Activity: 22.9%
[4]
  Activity: 15.01%
[5]
  Activity: 21.47%
[6]
  Activity: 16.8%
[7]
  Activity: 21.47%
[8]
  Activity: 3.68%
[9]
  Activity: 14.57%
[10]
  Activity: 0.8 mL⁻¹
[11]
  Activity: 2%
[12]
  Activity: 13.33%
[13]
  Activity: 0%
[14]
  Activity: 100%
[15]
  Activity: 0%
[16]
  Activity: 63.22%
[17]
  Activity: 0.86 mL⁻¹
[18]
  Activity: 100%
[19]
  Activity: 68.19%
[20]
  Activity: 19.29%
[21]
  Activity: 12.9%
[22]
  Activity: 5.59%
[23]
  Activity: 100%
[24]
  Activity: 64.5%
[25]
  Activity: 16.8%
[26]
  Activity: 66.37%
[27]
  Activity: 19.8%
[28]
  Activity: 1.02 mL⁻¹
[29]
  Activity: 1.87%
[30]
  EC50: 2.5 µM
[31]
  EC50: 4.67 µM
[32]
  Activity: 1.06 mL⁻¹
[33]
  Activity: 1.04 mL⁻¹
